What all share (assay): NCI-60 cell line screen, 48 h
The subject of test [1] is ACHN.
Test [2] concerns CAKI-1.
For test [3], the system named is HCT-15.
For test [4], the system named is HOP-62.
Test [5] deals with HOP-92.
Test [6] deals with IGROV-1.
Test [7] relates to KM12.
Test [8] deals with M14.
Test [9] deals with MDA-MB-231.
The subject of test [10] is MDA-N.
The subject of test [11] is Malme-3M.
In test [12] the test system is NCI-H226.
In test [13] the test system is NCI-H522.
The subject of test [14] is OVCAR-3.
The subject of test [15] is OVCAR-4.
Test [16] relates to PC-3.
Test [17] relates to SF-539.
For test [18], the system named is SK-MEL-28.
Test [19] has as its system SR.
Test [20] has as its system SW-620.

Each structure is given as a SMILES string.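 Tested at 5 concentrations; 48 h exposure; 96-well plates; endpoints linearly interpolated, else capped at highest concentration. The concentration for 50% growth inhibition is given as GI50.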 Calls of active or inactive are those of the source. No stated cut-off is given here; in the data, active = GI50 up to about 1.1 µM and inactive = higher. Some results are limits rather than exact numbers.

Regarding `CN(COC(=O)c1ccccc1)c1nc(N(C)COC(=O)c2ccccc2)nc(N(C)COC(=O)c2ccccc2)n1`, the GI50 in test [1] was 21.2 µM (inactive); in test [2], 57.7 µM (inactive); in test [3] it was greater than 100 µM; in test [4] it was 14.7 µM (inactive); in [5], 13.1 µM (inactive); in test [6], 28.8 µM (inactive). The GI50 in test [7] was > 100 µM (inactive); in test [8], > 86.3 µM (inactive); in test [9] it was 15.7 µM (inactive); in [10] it was > 100 µM (inactive); in test [11] it was > 100 µM (inactive); in test [12] it was 30.4 µM (inactive). Also, the GI50 in test [13] is 52.4 µM (inactive); in test [14], > 84.1 µM (inactive); in test [15], 47.5 µM (inactive); in test [16], > 100 µM (inactive); in test [17], 12.2 µM (inactive); in [18] it was > 100 µM (inactive). Also, the GI50 in test [19] and in test [20] was > 100 µM (inactive) each time.

`CC(C)(C)c1cc(-c2ccc(-c3cc(C(C)(C)C)c(O)c(C(C)(C)C)c3)cc2)cc(C(C)(C)C)c1O`: the GI50 in test [1] is > 100 µM (inactive); in [2] it was > 100 µM (inactive); in test [3], greater than 100 µM; in test [4], > 100 µM (inactive); in [5], > 100 µM (inactive); in test [6], > 100 µM (inactive). In addition, the GI50 in test [7], in test [8], in [9], in test [10], in [11] and in test [12] was > 100 µM (inactive) in each case. The GI50 in test [13], in [14], in [15], in test [16], in [17] and in test [18] was > 100 µM (inactive) throughout. In addition, the GI50 in [19] and in test [20] was > 100 µM (inactive) each time.

With `c1n[nH]cc1C12C3C4C5C3C1C5C42` (stereo unspecified), the GI50 was > 100 µM (inactive) in test [1]; > 100 µM (inactive) in test [2]; greater than 100 µM in [3]; > 100 µM (inactive) in test [4]; 65.6 µM (inactive) in test [5]; > 100 µM (inactive) in test [6]. The GI50 in [7], in test [8], in test [9], in [10], in test [11] and in test [12] was > 100 µM (inactive) in each case. Also, the GI50 in [13], in test [14], in test [15], in [16], in [17] and in [18] was > 100 µM (inactive) each time. The GI50 in [19] and in test [20] was > 100 µM (inactive) each time.

As for `O=C(O)c1nc2nc(Cl)c(Cl)nc2[nH]1`, the GI50 in test [1] is > 100 µM (inactive); in [2] it was > 100 µM (inactive); in test [3], greater than 100 µM; in test [4], > 100 µM (inactive); in test [5], > 100 µM (inactive); in test [6] it was > 100 µM (inactive). Besides, the GI50 in test [7], in [8], in test [9], in [10], in test [11] and in test [12] was > 100 µM (inactive) in each case. Also, the GI50 in test [13], in test [14], in [15], in test [16], in test [17] and in [18] was > 100 µM (inactive) each time. Moreover, the GI50 in [19] and in test [20] was > 100 µM (inactive) throughout.

For `CC1CC[C@@]2(OC1)OC1C[C@H]3[C@@H]4CCC5CC(O)CC[C@]5(C)[C@H]4C/C(=N\N(C)C)[C@]3(C)C1[C@@H]2C` (stereo partly specified), the GI50 was 30.3 µM (inactive) in test [1]; 23.4 µM in test [3]; 16.7 µM (inactive) in [4]; 52.8 µM (inactive) in test [5]; 28.7 µM (inactive) in test [6]; 25.5 µM (inactive) in test [7]. Moreover, the GI50 in test [8] is 32.3 µM (inactive); in [9] it was 19.2 µM (inactive); in test [10], 19.9 µM (inactive); in [11], 33.1 µM (inactive); in [12], 34.2 µM (inactive); in test [14] it was 17.9 µM (inactive). Further, the GI50 was 38.3 µM (inactive) in test [15]; 25.6 µM (inactive) in test [16]; 23.8 µM (inactive) in test [17]; 43.7 µM (inactive) in test [18]; 13.8 µM (inactive) in test [19]; 40.3 µM (inactive) in [20].

Turning to `CCOC(=O)c1c(-c2cccc3ccccc23)c(C#N)c(=S)n(C2OC(COC(C)=O)C(OC(C)=O)C(OC(C)=O)C2OC(C)=O)c1C` (stereo unspecified), the GI50 in [1] is > 100 µM (inactive); in [3], greater than 100 µM; in test [4] it was > 100 µM (inactive); in test [5], > 100 µM (inactive); in test [6] it was > 100 µM (inactive); in test [7], > 100 µM (inactive). Moreover, the GI50 in test [8], in test [9], in [10], in test [11], in [12] and in test [13] was > 100 µM (inactive) each time. Moreover, the GI50 in test [14] was > 100 µM (inactive); in [15] it was > 100 µM (inactive); in [16], 15.8 µM (inactive); in test [17], > 100 µM (inactive); in [18], > 100 µM (inactive); in test [19], > 100 µM (inactive).

With `CCCCCCCC(CC(=O)NC(CO)C(=O)NC(CO)CC(C)C)OC(=O)CC(CCCCCCC)OC(=O)CC(CCCCCCC)OC1OC(C)C(O)C(OC2OC(C)C(O)C(O)C2OC(C)=O)C1O` (stereo unspecified), the GI50 in test [1] was 15.5 µM (inactive); in test [2], 14.7 µM (inactive); in test [4], 12.9 µM (inactive); in [5], 10.2 µM (inactive); in test [6], 10.9 µM (inactive); in test [7] it was 2.74 µM (inactive). In addition, the GI50 is 5.69 µM (inactive) in test [8]; 9.38 µM (inactive) in test [9]; 3.46 µM (inactive) in test [10]; 10.9 µM (inactive) in [11]; 20.5 µM (inactive) in [12]; 12.6 µM (inactive) in test [13]. Further, the GI50 in [14] was 12.9 µM (inactive); in test [15], 5.64 µM (inactive); in test [16] it was 4.06 µM (inactive); in [17], 11.1 µM (inactive); in [18], 9.64 µM (inactive); in [19] it was 2.14 µM (inactive). Besides, the GI50 in test [20] was 8.75 µM (inactive).

Consider `O=C(OC1CN2CCC1CC2)N(c1ccccc1)c1ccccc1` (stereo unspecified), for which the GI50 was > 100 µM (inactive) in [1]; > 100 µM (inactive) in test [2]; greater than 100 µM in test [3]; 80.5 µM (inactive) in test [4]; 34.7 µM (inactive) in test [5]; > 100 µM (inactive) in test [6]. Also, the GI50 is 22.9 µM (inactive) in test [8]; 54 µM (inactive) in test [9]; > 100 µM (inactive) in [10]; > 100 µM (inactive) in test [11]; > 100 µM (inactive) in test [12]; > 100 µM (inactive) in [13]. Moreover, the GI50 was > 100 µM (inactive) in test [14]; > 100 µM (inactive) in test [15]; 69.2 µM (inactive) in [16]; 68.4 µM (inactive) in [17]; 80.5 µM (inactive) in [18]; 4.61 µM (inactive) in test [19].

With `Cc1sc(NC=C2C(=O)CC(C)(C)CC2=O)nc1-c1ccccc1`, the GI50 in test [1] was > 100 µM (inactive); in [2] it was > 100 µM (inactive); in [3], greater than 100 µM; in test [4] it was > 100 µM (inactive); in test [5] it was > 100 µM (inactive); in test [6], > 100 µM (inactive). Further, the GI50 is > 100 µM (inactive) in [7]; > 100 µM (inactive) in test [8]; > 100 µM (inactive) in test [9]; > 100 µM (inactive) in [10]; > 100 µM (inactive) in test [12]; 80.5 µM (inactive) in [13]. For the same compound, the GI50 in test [14], in [15], in test [16], in test [17], in [18] and in test [19] was > 100 µM (inactive) each time. In addition, in test [20], the GI50 is > 100 µM (inactive).

`NS(=O)(=O)c1ccc(N=C2C(=O)Nc3ccccc32)cc1`: the GI50 in test [1] is > 100 µM (inactive); in test [2] it was > 100 µM (inactive); in test [3], greater than 100 µM; in test [4], > 100 µM (inactive); in test [5], > 100 µM (inactive); in [6], > 100 µM (inactive). The GI50 in test [7], in test [8], in [9], in test [10], in [11] and in test [12] was > 100 µM (inactive) throughout. In addition, the GI50 is 70.8 µM (inactive) in test [13]; > 100 µM (inactive) in test [14]; > 100 µM (inactive) in [15]; > 100 µM (inactive) in [16]; > 100 µM (inactive) in test [18]; 67.8 µM (inactive) in [19]. Further, the GI50 in test [20] is > 100 µM (inactive).

The values are drawn from ChEMBL document CHEMBL1201862, “PubChem BioAssay data set” (2004).
